From patent publication US10562912B2 (C&C Research Laboratories, priority 2013, dated 2020)

What was measured:
Format in all cases: cell-based
MDA-MB-231 = assay: Cell growth inhibition assay, breast cancer cell line MDA-MB-231; conditions: Homo sapiens; MDA-MB-231 breast cancer cell line, 5,000 cells/well
LNCaP = assay: Cell growth inhibition assay, prostate cancer cell line LNCaP (medium with 10 ng/mL IL-6); conditions: Homo sapiens, medium supplemented with 10 ng/mL of IL-6, 10,000 cells/well
DU-145 = assay: Cell growth inhibition assay, prostate cancer cell line DU-145; conditions: Homo sapiens, DU-145 prostate cancer cell line
Outline: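 Cells were seeded at 3,000/well (HCT116, DU-145) or 5,000/well (SW626 and the others) and exposed to serial compound dilutions for 72 to 96 h at 37 °C under 5% CO2. Viability was read as CellTiter-Glo luminescence against 0.1% DMSO and cell-free wells.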

STAT3 = molecular target: T1, STAT3 (Homo sapiens, UniProt P40763); assay: STAT3 reporter gene assay (luciferase), LNCaP stable cell line (pSTAT3-TA-luc), IL-6 stimulation
T1 construct: plasmid pSTAT3-TA-luc), which contains a stably operating STAT3 promoter; endogenous in cells
Outline: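 LNCaP cells stably carrying pSTAT3-TA-luc, in RPMI1640 with 3% DCC-FBS, were treated with compound and then stimulated with 10 ng/mL IL-6 for 24–48 h at 37 °C. Luciferase activity was measured in lysates. A parallel plate measured viability by CellTiter-Glo, with stimulated 0.1% DMSO wells as the positive control.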

T1 sequence (P40763 whole entry): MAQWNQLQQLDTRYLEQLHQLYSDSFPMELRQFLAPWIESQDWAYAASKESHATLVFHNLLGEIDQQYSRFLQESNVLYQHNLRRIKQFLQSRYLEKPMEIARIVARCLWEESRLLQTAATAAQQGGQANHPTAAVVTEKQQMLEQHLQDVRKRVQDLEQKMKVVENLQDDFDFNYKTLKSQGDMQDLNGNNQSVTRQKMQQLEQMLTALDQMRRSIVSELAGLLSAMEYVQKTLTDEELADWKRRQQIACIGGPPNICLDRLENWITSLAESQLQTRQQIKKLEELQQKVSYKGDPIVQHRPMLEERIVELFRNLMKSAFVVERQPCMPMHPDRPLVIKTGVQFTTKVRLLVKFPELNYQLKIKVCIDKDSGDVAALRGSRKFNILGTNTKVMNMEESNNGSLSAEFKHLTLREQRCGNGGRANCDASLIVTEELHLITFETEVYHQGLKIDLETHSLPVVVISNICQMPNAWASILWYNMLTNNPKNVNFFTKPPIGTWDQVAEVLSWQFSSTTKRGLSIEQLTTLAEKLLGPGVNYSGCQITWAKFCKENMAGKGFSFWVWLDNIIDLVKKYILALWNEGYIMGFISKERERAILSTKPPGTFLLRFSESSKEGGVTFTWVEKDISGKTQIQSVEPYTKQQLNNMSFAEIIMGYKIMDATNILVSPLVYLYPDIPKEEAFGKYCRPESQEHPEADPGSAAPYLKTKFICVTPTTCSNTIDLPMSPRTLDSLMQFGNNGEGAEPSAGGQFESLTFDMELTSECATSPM

| Compound | IC50 (MDA-MB-231) [µM] | IC50 (LNCaP) [µM] | IC50 (DU-145) [µM] | IC50 (STAT3) [µM] |
| --- | --- | --- | --- | --- |
| CC(C)(c1ccc(F)cc1)c1cc(Cl)cc(NC(=O)c2cc3ccc(NS(C)(=O)=O)cc3[nH]2)c1 [Example 21, N-(3-chloro-5-(2-(4-fluorophenyl)propan-2-yl)phenyl)-6-(methylsulfonamido)-1H-indole-2-carboxamide] | 0.054 | 0.9 | 0.19 | 0.22 |
| COc1cc(OC(F)(F)F)cc(C(C)(C)c2cccc(NC(=O)c3cc4cc(NS(C)(=O)=O)ccc4s3)c2)c1 [Example 33, N-(3-(2-(3-methoxy-5-(trifluoromethoxy)phenyl)propan-2-yl)phenyl)-5-(methylsulfonamido)benzo[b]thiophene-2-carboxamide] | 0.003 | 0.15 | 0.037 | 0.035 |
| CCC(CC)(c1cc(NC(=O)c2cc3cc(NS(C)(=O)=O)ccc3s2)cc(OC)c1)c1cc(OC)cc(OC(F)(F)F)c1 [Example 54, N-(3-methoxy-5-(3-(3-methoxy-5-(trifluoromethoxy)phenyl)pentan-3-yl)phenyl)-5-(methylsulfonamido)benzo[b]thiophene-2-carboxamide] | 0.036 | 0.17 | 0.046 | 0.048 |
| COc1cc(NC(=O)c2cc3cc(NS(C)(=O)=O)ccc3s2)cc(C2(c3cc(OC)cc(OC(F)(F)F)c3)CC2)c1 [Example 427, N-(3-methoxy-5-(1-(3-methoxy-5-(trifluoromethoxy)phenyl)cyclopropyl)phenyl)-5-(methylsulfonamido)benzo[b]thiophene-2-carboxamide] | 0.085 | 0.41 | – | 0.13 |
| CS(=O)(=O)Nc1ccc2cc(C(=O)Nc3cc(OC(F)F)cc(C4(c5ccc(F)cc5)CC4)c3)[nH]c2c1 [Example 428, N-(3-(difluoromethoxy)-5-(1-(4-fluorophenyl)cyclopropyl)phenyl)-6-(methylsulfonamido)-1H-indole-2-carboxamide] | 0.39 | 1.4 | – | 1 |
| CC(O)(c1ccccc1)c1cccc(NC(=O)c2cc3ccc(NS(C)(=O)=O)cc3[nH]2)c1 (stereo not drawn) [Example 435, N-(3-(1-hydroxy-1-phenylethyl)phenyl)-6-(methylsulfonamido)-1H-indole-2-carboxamide] | 4.3 | > 10 | – | 5.8 |
| CC(C)(c1cccc(NC(=O)c2cc3ccc(N(CC(N)=O)S(C)(=O)=O)cc3[nH]2)c1)c1cc(O)cc(OC(F)(F)F)c1 [Example 436, 6-(N-(2-amino-2-oxoethyl)methylsulfonamido)-N-(3-(2-(3-hydroxy-5-(trifluoromethoxy)phenyl)propan-2-yl)phenyl)-1H-indole-2-carboxamide] | 4.7 | > 10 | – | 5.2 |
| CC(C)(c1cccc(NC(=O)c2cc3ccc(N(CC(N)=O)S(C)(=O)=O)cc3[nH]2)c1)c1cc(OCC(N)=O)cc(OC(F)(F)F)c1 [Example 437, N-(3-(2-(3-(2-amino-2-oxoethoxy)-5-(trifluoromethoxy)phenyl)propan-2-yl)phenyl)-6-(N-(2-amino-2-oxoethyl)methylsulfonamido)-1H-indole-2-carboxamide] | > 10 | > 10 | – | 6.3 |

Further compounds by falling IC50 (MDA-MB-231), results first:

| IC50 (MDA-MB-231) [µM] | IC50 (LNCaP) [µM] | IC50 (DU-145) [µM] | IC50 (STAT3) [µM] | Compound |
| --- | --- | --- | --- | --- |
| 3.6 | 5.8 | 4.9 | 2.7 | CC(C)(c1cc(Br)cc(NC(=O)c2cc3cc(NS(C)(=O)=O)ccc3s2)c1)c1cccc(OCC(N)=O)c1 [Example 43, N-(3-(2-(3-(2-amino-2-oxoethoxy)phenyl)propan-2-yl)-5-bromophenyl)-5-(methylsulfonamido)benzo[b]thiophene-2-carboxamide] |
| 2.9 | > 10 | – | 6.5 | CS(=O)(=O)Nc1ccc2cc(C(=O)Nc3cccc(C(=O)c4ccccc4)c3)[nH]c2c1 [Example 434, N-(3-benzoylphenyl)-6-(methylsulfonamido)-1H-indole-2-carboxamide] |
| 2.2 | 2.6 | 1.2 | 0.23 | CC(C)(C)OC(=O)N1CCN(Cc2cccc(C(C)(C)c3cc(Br)cc(NC(=O)c4cc5ccc(NS(C)(=O)=O)cc5[nH]4)c3)c2)CC1 [Example 117, tert-butyl 4-(3-(2-(3-bromo-5-(6-(methylsulfonamido)-1H-indole-2-carboxamido)phenyl)propan-2-yl)benzyl)piperazine-1-carboxylate] |
| 1.5 | 5.6 | 1.7 | 2.5 | CN1CCN(Cc2cccc(C(C)(C)c3cc(Br)cc(NC(=O)c4cc5cc(NS(C)(=O)=O)ccc5s4)c3)c2)CC1 [Example 115, N-(3-bromo-5-(2-(3-((4-methylpiperazin-1-yl)methyl)phenyl)propan-2-yl)phenyl)-5-(methylsulfonamido)benzo[b]thiophene-2-carboxamide] |
| 0.38 | 1.3 | – | 0.46 | CS(=O)(=O)Nc1ccc2cc(C(=O)Nc3cccc(C4(c5ccc(F)cc5)CC4)c3)[nH]c2c1 [Example 425, N-(3-(1-(4-fluorophenyl)cyclopropyl)phenyl)-6-(methylsulfonamido)-1H-indole-2-carboxamide] |
| 0.1 | 0.5 | – | 0.15 | CS(=O)(=O)Nc1ccc2sc(C(=O)Nc3cccc(C4(c5ccc(F)cc5)CC4)c3)cc2c1 [Example 424, N-(3-(1-(4-fluorophenyl)cyclopropyl)phenyl)-5-(methylsulfonamido)benzo[b]thiophene-2-carboxamide] |
| 0.088 | 0.52 | 0.15 | 0.12 | COc1cc2cc(C(=O)Nc3cc(Br)cc(C(C)(C)c4ccc(F)cc4)c3)[nH]c2cc1NS(C)(=O)=O [Example 19, N-(3-bromo-5-(2-(4-fluorophenyl)propan-2-yl)phenyl)-5-methoxy-6-(methylsulfonamido)-1H-indole-2-carboxamide] |
| 0.086 | 0.35 | – | 0.19 | CS(=O)(=O)Nc1ccc2sc(C(=O)Nc3cc(OC(F)F)cc(C4(c5ccc(F)cc5)CC4)c3)cc2c1 [Example 429, N-(3-(difluoromethoxy)-5-(1-(4-fluorophenyl)cyclopropyl)phenyl)-5-(methylsulfonamido)benzo[b]thiophene-2-carboxamide] |
| 0.074 | 0.3 | 0.13 | 0.082 | CS(=O)(=O)Nc1ccc2sc(C(=O)Nc3cc(Br)cc(C4(c5ccc(F)cc5F)CC4)c3)cc2c1 [Example 426, N-(3-bromo-5-(1-(2,4-difluorophenyl)cyclopropyl)phenyl)-5-(methylsulfonamido)benzo[b]thiophene-2-carboxamide] |
| 0.021 | 0.15 | 0.044 | 0.034 | CC(C)(c1ccc(F)cc1)c1cc(Br)cc(NC(=O)c2cc3cc(NS(C)(=O)=O)ccc3s2)c1 [Example 32, N-(3-bromo-5-(2-(4-fluorophenyl)propan-2-yl)phenyl)-5-(methylsulfonamido)benzo[b]thiophene-2-carboxamide] |
